Measured values published in patent US7012082B2, “Method of correcting HERG channel dysfunction” (priority 2002, dated 2006).

What was measured:
[1] = molecular target: T1, HERG N470D mutant channels (Homo sapiens, UniProt Q12809, N470D); details: cultured at physiological temperature in low concentrations of drug; earlier publications; cited from earlier work
HERG N470D = molecular target: T2, HERG N470D (Homo sapiens, UniProt Q12809, N470D); details: cultured at physiological temperature in low concentrations of drug; earlier publications; cited from earlier work
T2 construct: expressed in transfected cells

[2] = molecular target: T1, HERG N470D mutant channels

Row | Compound | HERG current after drug washout, N470D cells (pharmacological rescue) [1] | mature HERG protein band on western blot, N470D cells (HERG N470D) | rescue of N470D current [2]
1 | COc1cc(N)c(Cl)cc1C(=O)NC1CCN(CCCOc2ccc(F)cc2)CC1OC (stereo not drawn) [cisapride] | large amplitude HERG current could be recorded | appearance on western blot analysis of the mature HERG protein band | 
2 | Sodium-phenylbutyrate [4PBA] |  |  | did not rescue N470D current
